Our source for the IC50 values is patent US20040214832A1, “Piperazine derivative renin inhibitors” (priority 2003, published 2004).

As usually defined, the pIC50 is the negative decadic logarithm of the IC50, by convention in mol/L.

Each structure is given as a SMILES string. pIC50: −log10 of the molar value.

This test addresses T1, human renin (Homo sapiens, UniProt P00797).
T1 sequence (P00797 67-406): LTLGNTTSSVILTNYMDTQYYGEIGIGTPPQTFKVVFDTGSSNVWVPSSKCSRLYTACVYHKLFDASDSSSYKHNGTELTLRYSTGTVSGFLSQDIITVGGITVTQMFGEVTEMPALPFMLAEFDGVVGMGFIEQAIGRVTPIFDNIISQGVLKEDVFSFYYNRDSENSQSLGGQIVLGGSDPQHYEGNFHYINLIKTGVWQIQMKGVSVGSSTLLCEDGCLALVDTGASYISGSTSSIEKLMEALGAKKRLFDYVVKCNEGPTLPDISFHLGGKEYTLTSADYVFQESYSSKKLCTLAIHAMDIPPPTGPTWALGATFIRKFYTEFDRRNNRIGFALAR
Put plainly: Determination of renin IC50 by tGFP FRET assay. Conditions: Human recombinant renin, tandem GFP substrate 650 nM, 60 min incubation with compound, pH 7.4, 11-point curve. Format: biochemical. The method, boiled down: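 Human recombinant renin (final 50.4 μIU) preincubated 60 min with compound (5% DMSO final) in 50 mM HEPES, 1 mM EDTA, 1% PEG 8000, 1 mM DTT, 0.1% BSA, pH 7.4, then tandem-GFP substrate added at 650 nM final. FRET fluorescence read; IC50 from 11-point curves spanning 100 μM–1 pM.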

For `COC(=O)CN1C(=O)CCc2ccc(OC[C@H]3CNCC(=O)N3c3ccc(OCCCOCc4ccccc4OC)cc3)cc21` [Example 116, [7-([2R]-1-{4-[3-(2-Methoxybenzyloxy)-propoxy]-phenyl}-6-oxopiperazin-2-ylmethoxy)-2-oxo-3,4-dihydro-2H-quinolin-1-yl]-acetic acid methyl ester], the negative logarithm of the IC50 (pIC50) is 8.40. The result for `COc1ccccc1COCCCOc1ccc(N2C(=O)CNC[C@@H]2COCc2cccc(C)c2)cc1` [Example 15, (6R)-1-{4-[3-(2-methoxybenzyloxy)-propoxy]-phenyl}-6-(3-methylbenzyloxymethyl)-piperazin-2-one] reads 6.43; that for `COc1ccccc1COCCOCc1ccc(N2C(=O)CNC[C@@H]2COCc2ccc(F)cc2)cc1` [Example 74, (6R)-6-(4-fluorobenzyloxymethyl)-1-{4-[2-(2-methoxybenzyloxy)-ethoxymethyl]-phenyl}-piperazin-2-one], 5.39.

Consider `COc1ccccc1COCCCOc1ccc(N2C(=O)CNC[C@@H]2COc2ccc3c(c2)N(CCO)CCC3)cc1` [Example 57, (6R)-6-[1-(2-hydroxyethyl)-1,2,3,4-tetrahydroquinolin-7-yloxymethyl]-1-{4-[3-(2-methoxybenzyloxy)-propoxy]-phenyl}-piperazin-2-one], for which the pIC50 was 7.19. With `COc1ccccc1COCCCOc1ccc(N2C(=O)CNC[C@@H]2COc2ccc3ccncc3c2)cc1` [Example 51, (6R)-6-(isoquinolin-7-yloxymethyl)-1-{4-[3-(2-methoxybenzyloxy)-propoxy]-phenyl}-piperazin-2-one], the negative logarithm of the IC50 (pIC50) is 6.28.

As to `COc1ccc(COC[C@H]2CNCCN2c2ccc(OCCCOCc3ccccc3OC)cc2)cc1` [Example 33, (2R)-2-(4-methoxybenzyloxymethyl)-1-{4-[3-(2-methoxy-benzyloxy)-propoxy]-phenyl}-piperazine], the pIC50 is 5.40.

As to `COc1ccccc1COCCCOc1ccc(N2CCNC[C@@H]2COCc2ccc3ccccc3c2)cc1` [Example 90, (2R)-1-{4-[3-(2-methoxybenzyloxy)-propoxy]-phenyl}-2-(naphthalen-2-ylmethoxymethyl)-piperazine], the pIC50 was 5.77. Turning to `COc1ccccc1COCCCOc1ccc(N2C(=O)CNC[C@@H]2COCc2cccc(F)c2)cc1` [Example 18, (6R)-6-(3-fluorobenzyloxymethyl)-1-{4-[3-(2-methoxybenzyloxy)-propoxy]-phenyl}-piperazin-2-one], the pIC50 is < 6.00. `COc1ccccc1COCCCOc1ccc(N2C(=O)CNC[C@@H]2COc2ccc3c(c2)N(CCOC(C)=O)CCC3)cc1` [Example 31, acetic acid 2-[7-(1-{4-[3-(2-methoxybenzyloxy)-propoxy]-phenyl}-6-oxopiperazin-(2R)-ylmethoxy)-3,4-dihydro-2H-quinolin-1-yl]-ethyl ester]: the pIC50 was 9.38. The result for `COc1ccccc1COCCCOc1ccc(N2C(=O)CNC[C@@H]2COC(=O)c2ccc(C)cc2)cc1` [Example 59, 4-methyl-benzoic acid (2R)-1-{4-[3-(2-methoxybenzyloxy)-propoxy]-phenyl}-6-oxopiperazin-2-yl methyl ester] reads < 6.00. In the case of `COc1ccccc1COCCCOc1ccc(N2C(=O)CNC[C@@H]2COCc2ccc(Cl)c(C(F)(F)F)c2)cc1` [Example 24, (6R)-6-(4-chloro-3-trifluoromethylbenzyloxymethyl)-1-{4-[3-(2-methoxybenzyloxy)-propoxy]-phenyl}-piperazin-2-one], the pIC50 was 6.97. The value for `COc1ccccc1COCCCOc1ccc(N2C(=O)CNC[C@@H]2COCc2ccc(F)c(F)c2)cc1` [Example 4, (6R)-6-(3,4-difluorobenzyloxymethyl)-1-{4-[3-(2-methoxybenzyloxy)-propoxy]-phenyl}-piperazin-2-one] was 6.61; that for `COc1ccccc1COCCCOc1ccc(N2C(=O)CNC[C@@H]2COCc2ccc(F)c(C)c2)cc1` [Example 27, (6R)-6-(4-fluoro-3-methylbenzyloxymethyl)-1-{4-[3-(2-methoxybenzyloxy)-propoxy]-phenyl}-piperazin-2-one] was < 6.00; that for `COc1ccc(COC[C@H]2CNCCN2c2ccc(OCCCCOc3ccccc3OC)cc2)cc1` [Example 75, (2R)-2-(4-methoxybenzyloxymethyl)-1-{4-[4-(2-methoxyphenoxy)-butoxy]-phenyl}-piperazine] was 4.38. The result for `COc1ccccc1COCCCOc1ccc(N2C(=O)CNC[C@@H]2COCc2c(Cl)cccc2Cl)cc1` [Example 17, (6R)-6-(2,6-dichlorobenzyloxymethyl)-1-{4-[3-(2-methoxybenzyloxy)-propoxy]-phenyl}-piperazin-2-one] reads < 6.00; that for `COc1ccccc1COCCCOc1ccc(N2C(=O)CNC[C@H]2COCc2ccc(F)cc2)cc1` [Example 46, (6S)-6-(4-fluorobenzyloxymethyl)-1-{4-[3-(2-methoxybenzyloxy)-propoxy]-phenyl}-piperazin-2-one], 5.25; that for `COCc1ccc(N2CCNC[C@@H]2COc2ccc3ccccc3c2)cc1` [Example 99, (2R)-1-(4-methoxymethylphenyl)-2-(naphthalene-2-yloxymethyl)-piperazine], < 6.00. The value for `COc1ccccc1COCCCOc1ccc(N2C(=O)CNC[C@@H]2COc2ccc(NC(C)=O)cc2)cc1` [Example 93, N-[4-([2R]-1-{4-[3-(2-methoxybenzyloxy)-propoxy]-phenyl}-6-oxopiperazin-2-ylmethoxy)-phenyl]-acetamide] was < 6.00; that for `COc1ccccc1COCCCOc1ccc(N2C(=O)CNC[C@@H]2COCc2cc(Cl)cc(Cl)c2)cc1` [Example 20, (6R)-6-(3,5-dichlorobenzyloxymethyl)-1-{4-[3-(2-methoxybenzyloxy)-propoxy]-phenyl}-piperazin-2-one] was < 6.00. Turning to `COc1cccc(COCCCOc2ccc(N3CCNC[C@@H]3COc3ccc4ccccc4c3)cc2)c1` [Example 89, (2R)-1-{4-[3-(3-methoxybenzyloxy)-propoxy]-phenyl}-2-(naphthalen-2-yloxymethyl)-piperazine], the pIC50 is 4.63. The value for `COc1ccccc1COCCCOc1ccc(N2C(=O)CNC[C@@H]2COCc2cc(F)cc(F)c2)cc1` [Example 11, (6R)-6-(3,5-difluorobenzyloxymethyl)-1-{4-[3-(2-methoxybenzyloxy)-propoxy]-phenyl}-piperazin-2-one] was 5.80.

For `COc1ccccc1COCCCOc1ccc(N2C(=O)CNC[C@@H]2COCc2cccc(Cl)c2)cc1` [Example 6, (6R)-6-(3-chlorobenzyloxymethyl)-1-{4-[3-(2-methoxybenzyloxy)-propoxy]-phenyl}-piperazin-2-one], the pIC50 was 6.49. The result for `COCCCN1C(=O)COc2ccc(SC[C@H]3CNCC(=O)N3c3ccc(OCCCOCc4ccccc4OC)cc3)cc21` [Example 128, 6-([2R]-1-{4-[3-(2-Methoxybenzyloxy)-propoxy]-phenyl}-6-oxo-piperazin-2-ylmethylsulfanyl)-4-(3-methoxypropyl)-4H-benzo[1,4]oxazin-3-one] reads 9.74; that for `COc1ccc(COCCCOc2ccc(N3CCNC[C@@H]3COCc3ccc(OC)cc3)cc2)cc1` [Example 65, (2R)-2-(4-methoxybenzyloxymethyl)-1-{4-[3-(4-methoxybenzyloxy)-propoxy]-phenyl}-piperazine], < 6.00. Take `O=C(NCCc1ccccc1)c1ccc(N2C(=O)CNC[C@@H]2COc2ccc3ccccc3c2)cc1` [Example 47, 4-[(2R)-2-(naphthalen-2-yloxymethyl)-6-oxopiperazin-1-yl]-N-phenethylbenzamide]: the pIC50 was < 6.00. The value for `CC(=O)NCCN1CCCc2ccc(OC[C@H]3CNCC(=O)N3c3ccc(OCCCOCc4ccccc4F)cc3)cc21` [Example 126, N-{2-[7-([2R]-1-{4-[3-(2-Fluorobenzyloxy)-propoxy]-phenyl}-6-oxopiperazin-2-ylmethoxy)-3,4-dihydro-2H-quinolin-1-yl]-ethyl}-acetamide] was 8.30; that for `COc1ccccc1OCCCOCc1ccc(N2CCNC[C@@H]2COc2ccc3ccccc3c2)cc1` [Example 97, (2R)-1-(4-[3-(2-methoxyphenoxy)-propoxymethyl]-phenyl)-2-(naphthalene-2-yloxymethyl)-piperazine] was 4.58.

On to `COC(=O)CCN1CCCc2ccc(OC[C@H]3CNCC(=O)N3c3ccc(OCCCOCc4ccccc4OC)cc3)cc21` [Example 122, 3-[7-([2R]-1-{4-[3-(2-Methoxybenzyloxy)-propoxy]-phenyl}-6-oxopiperazin-2-ylmethoxy)-3,4-dihydro-2H-quinolin-1-yl]-propionic acid methyl ester], for which the pIC50 was 9.44.

On to `c1ccc(COc2ccc(N3CCNC[C@@H]3COc3ccc4ccccc4c3)cc2)cc1` [Example 35, (2R)-1-(4-benzyloxyphenyl)-2-(naphthalen-2-yloxymethyl)-piperazine], for which the pIC50 is < 6.00. Take `COc1ccccc1COCCCOc1ccc(N2C(=O)CNC[C@@H]2COc2ncccn2)cc1` [Example 81, (6R)-1-{4-[3-(2-methoxybenzyloxy)-propoxy]-phenyl}-6-(pyrimidin-2-yloxymethyl)-piperazin-2-one]: the pIC50 is 4.47. Take `COc1ccc(COC[C@H]2CNCCN2c2ccc(OCCCOCc3ccccc3Cl)cc2)cc1` [Example 66, (2R)-1-{4-[3-(2-chlorobenzyloxy)-propoxy]-phenyl}-2-(4-methoxybenzyloxymethyl)-piperazine]: the negative logarithm of the IC50 (pIC50) was 4.80.
